Assay results from ChEMBL document CHEMBL1127207, “Synthesis of ingenol analogs wth affinity for protein kinase C” (Bioorg Med Chem Lett, 1993).

What was measured:
Mus musculus = assay: Tested in vivo for inflammatory potency in the mouse ear; assay type: functional
[1] = target: T1, Protein kinase C alpha type (Homo sapiens, UniProt P17252); assay: Displacement of [3H]-PDBU from protein kinase C-alpha
[2] = target: T1, Protein kinase C alpha type; assay: Displacement of [3H]PDBU from protein kinase C-alpha
[3] = target: T1, Protein kinase C alpha type; assay: Displacement of [3H]PDBU from protein kinase C-alpha (Inactive)

SMILES | Potency (Mus musculus) | Ki [1] | Ki [2] | other results
CCCCC(=O)O[C@@H]1[C@@H](C)[C@@]2(O)[C@@H](C=C(CO)C[C@]3(O)C(=O)C(C)=C[C@@H]23)[C@@H]2C(C)(C)[C@]12OC(=O)CCCC | 0.067 nM | 0.54 nM | – | –
CC1=CC23C(=O)[C@@H](C=C(CO)[C@@H](O)[C@]2(O)[C@H]1OC(=O)c1ccccc1)[C@H]1[C@@H](C[C@H]3C)C1(C)C | – | – | 0.14 nM | –
CC1=C[C@@]23CCCC[C@@H](C=C(CO)[C@@H](O)[C@]2(O)[C@H]1O)C3=O | – | – | – | Ki [3]: Not Active
O=C(O[C@H]1CCC23CCCC[C@H](C=C(CO)C[C@H]12)C3=O)c1ccccc1 | – | – | 165 nM | –
CC1=CC23C(=O)[C@@H](C=C(CO)[C@@H](O)[C@]2(O)[C@H]1O)[C@H]1[C@@H](C[C@H]3C)C1(C)C | – | 240 nM | – | –
CC1=CC23C(=O)[C@@H](C=C(COC(=O)c4ccccc4)[C@@H](O)[C@]2(O)[C@H]1OC(=O)c1ccccc1)[C@H]1[C@@H](C[C@H]3C)C1(C)C | 0.054 nM | – | – | –
